Assay results taken from patent publication US7901707B2, “Biodegradable biocompatible implant and method of manufacturing same” (priority 2005, dated 2011).
Values after ≈ are worked out from the molar mass of the structure shown.

Columns and labels:
SKOV-3 cells = assay: In-vitro cytotoxicity of implant, implant containing PTX and free PTX (MTT); assay type: cell-based, human
Procedure: In-vitro cytoxicity of the implant, implant containing PTX and free PTX. The SKOV-3 cells were plated in 6-well plates and cultured in RPMI 1640 supplemented with 1% penicillin/streptomycin solution and 10% fetal bovine serum. The cell line was grown at 37° C. in a humidified incubator equilibrated with 5% CO2. Medium was replaced three times a week and cells were typsinised and subcultured every five days. […] Likewise, PoLi implants of varying sizes were added to the wells. The implants were swelled in 70% ethanol for sterilization purposes prior to incubation with cells. Following a 48 hour incubation period the cell viability was measured using the MTT assay. The MTT dye was added to each well following the specific time period and incubated for 2 hours at 37° C. Cells were then solubilized in 10% SDS. Formazan dye concentrations were then detected using a microplate reader (BioRad) at […] wavelength of 570 nm.

SKOV3 cells = assay: Cell proliferation assay (MTT), sustained exposure; assay type: cell-based, human
Procedure: (§1) Briefly, cells were diluted with culture medium to the seeding density (10^5 cells/mL) and suspended in 96-well tissue culture plates (100 μL/well), and preincubated at 37° C. overnight. Cells were then treated continuously with 10 μL of various concentrations of the anticancer agents to obtain a dose-response curve for each agent. For combination assays, cells were also treated continuously with a total of with 10 μL of various concentrations of PTX and CPT. Each drug concentration was as follows: 6.25-200 ng/mL PTX and 1-50 μg/mL CPT.
(§2) After incubation of 24, 48 and 72 h, 10 μL of MTT solution (5 mg/mL of PBS, filtered) was added to each well and the plates were further incubated for 4 h. 100 μL of extraction buffer (20% w/v SDS dissolved at 37° C. in a solution of 50% Dimethylformamide/50% H2O, 2.5% of 80% Acetic acid 2.5% of 1N HCl (ph 4.7)) was added to solubilize the MTT-formazan product. Absorbance at 570 nm was measured with a microplate reader (SPECTRAmax® PLUS384, Molecular Devices, Sunnyvale Calif.—U.S.A.). Dose response curves were plotted as a percentage of the control cell number, which was obtained from the no-drug exposure sample. A semilog scale was used when necessary: IC50 of CPT for SKOV3 and CAOV3.

ovarian cancer cells = assay: MTT assay, combination of PTX and CPT; assay type: cell-based; settings: 48 hour
Procedure: as §1
as §2, with “sample.” for “sample. A semilog scale was used when necessary: IC50 of CPT for SKOV3 and CAOV3.”

decrease in IC50, 24 versus 72 hour time point (SKOV3 cells) | IC50 (ovarian cancer cells; PTX alone) | Compound | reduction in cells (SKOV-3 cells; 0.050 μg of free PTX, 48 hours) | cell reduction (SKOV-3 cells; 0.2 μg of free PTX, 48 hours) | IC50 (SKOV-3 cells; Homo sapiens, SK-OV-3, 48 hours of incubation) | CPT IC50 (ovarian cancer cells; CPT alone)
10 fold | > 0.2 µg/mL | CC(=O)O[C@H]1C(=O)[C@@]2(C)[C@H]([C@H](OC(=O)c3ccccc3)[C@]3(O)C[C@H](OC(=O)[C@H](O)[C@@H](NC(=O)c4ccccc4)c4ccccc4)C(C)=C1C3(C)C)[C@]1(OC(C)=O)CO[C@@H]1C[C@@H]2O [PTX, paclitaxel] | 64% | 73% | 0.0347 µg/mL (≈ 0.0406 µM) | 
 |  | N.N.O=C([O-])C1(C(=O)[O-])CCC1.[Pt+2] [CPT, carboplatin] |  |  |  | 35 µg/mL
